Here are results for one substance from article PMC9103351, “Effects of the Bark Resin Extract of Garcinia nigrolineata on Chronic Stress-Induced Memory Deficit in Mice Model and the In Vitro Monoamine Oxidases and β-Amyloid Aggregation Inhibitory Activities of Its Prenylated Xanthone Constituents” (Molecules, 2022).

In experiment [1] the test system is UCMS mice. The experiment is described as follows: Novel Object Recognition Test (NORT) in UCMS mice. In kind it is in vivo, ICR mice. To be noted: 100 mg/kg/day p.o. The protocol: (§1) Five-week-old male ICR mice (weight: 20–30 g), which were acquired from Nomura Siam International (Pathumwan, Bangkok, Thailand), were maintained at the Animal Unit of the Faculty of Pharmaceutical Sciences, Khon Kaen University. Mice were cared for in accordance with the Guiding Principles for the Care and Use of Animals (NIH Publications No. 80–23, revised in 2011). The facilities sustained a 12 h light/dark cycle, constant temperature (22 ± 2 °C), and humidity (45 ± 2%), with full access to food and drink. The current research was authorized by the Animal Ethics Committee for Use and Care of Khon Kaen University (IACUC-KKU-121/64)
Mice in the stress groups received mild stressors for 6 weeks. […]
The NORT is used to investigate the spatial recognition memory associated with the ability to discriminate between two sets of objects that differ in texture, color, and shape. […] The mouse was free to explore the objects for 5 min and the total time spent exploring each object and the percentage discrimination index were recorded. […] The exploration ratio was calculated according to the following equation:% Discrimination index = [(TN − TF)/(TN + TF)] × 100 where, TN = time devoted to the novel object, TF = time devoted to the familiar object.

The subject of experiment [2] is UCMS mice. Nature of the experiment: Morris Water Maze Test (MWMT) in UCMS mice. It counts as in vivo, ICR mice. The protocol: as §1, with “20-30” for “20–30”, “80-23,” for “80–23,”, “(IACUC-KKU-121/64) Mice in the stress groups received mild stressors for 6 weeks. […] In each trial, the latency to reach the platform (escape latency) and the distance covered were recorded for 5 days. […] After completion of the probe test, the time spent in the target quadrant (Q1) was counted as an index of reference memory.” for “(IACUC-KKU-121/64)”

As to vitamin E, the “discrimination index performance (NORT test phase)” value in experiment [1] is listed as “significantly ameliorated”. Further, the “time spent in the target quadrant (MWMT probe, day 6)” value in experiment [2] (100 mg/kg/day oral) is reported as “significantly increased”. Moreover, the “escape latency (MWMT training)” value in experiment [2] (three weeks of treatment, days 3, 4 and 5) was “significantly reduced”.
